# Literature values, collected in patent publication US4693997A, “Novel pharmaceutical composition” (priority 1982, dated 1987).
# Where a name gives a salt, the structure may show the parent alone. Read-outs that look alike come from different tables or passages of the source.
# Test system: mucosa in the oesophagus
# Details: oral tablets
# [1] = compared with emepronium bromide tablets
structure (smiles),measurement,setting,value
CC1c2cccc(O)c2C(=O)C2=C(O)C3(O)C(=O)C(C(N)=O)=C(O)C(N(C)C)C3C(O)C21 (stereo not drawn) [doxycycline hydrochloride],oesophageal irritation and ulceration,[1],same type of irritation and ulceration
CC[N+](C)(C)C(C)CC(c1ccccc1)c1ccccc1 (stereo not drawn) [emepronium bromide],oesophageal irritation and ulceration,"Bennett, Lancet 1977, 1, 810",severe irritation and ulceration in the oesophagus
CC(C)NCC(O)COc1cccc2ccccc12 (stereo not drawn) [propranolol hydrochloride],oesophageal irritation and ulceration,[1],same type of irritation and ulceration
